This is an account of results in patent US7879858B2, “Substituted tetrahydropyrrolopyrazine compounds and the use thereof in pharmaceutical compositions” (Gruenenthal GmbH, priority 2006, dated 2011).

In one assay the target is T1, Serotonin reuptake (Rattus norvegicus, UniProt P31652).
T1 construct: synaptosomes are freshly isolated from areas of the rat brain; from tissue; host or cells: rat brain synaptosomes (P2 fraction)
The assay can be described thus: Inhibition of 5HT (serotonin) uptake in rat brain synaptosomes. The assay is classed as biochemical. To be noted: 10 μmol; synaptosomes from rat brain. The procedure: (§1) Biological Data Inhibition of NA and 5HT Uptake
(§2) In order to be able to carry out these in vitro studies, synaptosomes are freshly isolated from areas of the rat brain. In each case a so-called “P2” fraction prepared in accordance with the instructions of Gray and Whittaker (E. G. Gray and V. P. Whittaker (1962) J. Anat. 76, 79-88) is prepared. For the NA uptake, these vesicular particles are isolated from the hypothalamus of male rat brains. A detailed description of the method can be found in the literature (M. Ch. Frink, H.-H. Hennies, W. Englberger, M. Haurand and B. Wilffert (1996) Arzneim.-Forsch./Drug Res. 46 (III), 11, 1029-1036).

Another assay has as its system NA reuptake. The assay can be described thus: Inhibition of NA (noradrenaline) uptake in rat hypothalamus synaptosomes. It is filed as biochemical. To be noted: synaptosomes from hypothalamus of male rat brains. The procedure:
as §1, §2

A word on the inhibition: it is how much of the control response was suppressed.

The structures appear in SMILES notation.

T1 sequence (P31652 whole entry): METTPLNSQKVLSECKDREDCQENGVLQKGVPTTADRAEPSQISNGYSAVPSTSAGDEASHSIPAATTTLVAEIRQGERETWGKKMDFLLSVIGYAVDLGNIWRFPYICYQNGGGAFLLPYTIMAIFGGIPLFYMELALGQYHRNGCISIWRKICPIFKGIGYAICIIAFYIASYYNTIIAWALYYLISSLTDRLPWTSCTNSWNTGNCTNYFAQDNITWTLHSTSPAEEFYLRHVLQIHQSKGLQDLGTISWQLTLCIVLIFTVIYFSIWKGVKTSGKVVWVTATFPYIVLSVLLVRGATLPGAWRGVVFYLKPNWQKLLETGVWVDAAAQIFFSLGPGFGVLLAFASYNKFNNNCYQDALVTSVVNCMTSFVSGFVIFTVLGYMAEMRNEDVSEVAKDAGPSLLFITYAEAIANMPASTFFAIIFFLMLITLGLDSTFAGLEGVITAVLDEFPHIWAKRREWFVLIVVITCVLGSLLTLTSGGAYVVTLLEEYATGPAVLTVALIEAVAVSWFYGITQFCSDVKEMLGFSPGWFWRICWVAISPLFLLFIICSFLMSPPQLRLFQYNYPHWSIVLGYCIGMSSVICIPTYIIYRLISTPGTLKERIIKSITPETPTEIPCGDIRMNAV

`Cc1ccccc1C(=O)N1CCn2cccc2C1c1ccc(N(C)C)cc1` (stereo not shown) [Example 50, (1-(4-(dimethylamino)phenyl)-3,4-dihydropyrrolo[1,2-a]pyrazin-2(1H)-yl)(o-tolyl)methanone]: the inhibition at 10 µM against Serotonin reuptake came out at 41%. Moreover, the “NA reuptake % inhibition [10 μmol]” value with NA reuptake was found to be 14%.

`CN(C)c1ccc(C2c3cccn3CCN2C(=O)c2ccccc2F)cc1` (stereo not shown) [Example 51, (1-(4-(dimethylamino)phenyl)-3,4-dihydropyrrolo[1,2-a]pyrazin-2(1H)-yl)(2-fluorophenyl)methanone]: the inhibition at 10 µM at Serotonin reuptake is 43%. Further, in the assay on NA reuptake, the “NA reuptake % inhibition [10 μmol]” value is listed as 19%.

As for `CN(C)c1ccc(C2c3cccn3CCN2C(=O)C2CC2)cc1` (stereo not shown) [Example 52, cyclopropyl(1-(4-(dimethylamino)phenyl)-3,4-dihydropyrrolo[1,2-a]pyrazin-2(1H)-yl)methanone], the inhibition at 10 µM on Serotonin reuptake was determined as 27%. The “NA reuptake % inhibition [10 μmol]” value in the assay on NA reuptake is 16%.

In the case of `CN(C)c1ccc(C2c3cccn3CCN2C(=O)c2cccs2)cc1` (stereo not shown) [Example 53, (1-(4-(dimethylamino)phenyl)-3,4-dihydropyrrolo[1,2-a]pyrazin-2(1H)-yl)(thiophen-2-yl)methanone], 10 µM produced 31% inhibition on Serotonin reuptake. Besides, in the assay with NA reuptake, the “NA reuptake % inhibition [10 μmol]” value is recorded as 26%.

At Serotonin reuptake, `CN(C)c1ccc(C2c3cccn3CCN2C(=O)c2ccc(F)cc2)cc1` (stereo not shown) [Example 54, (1-(4-(dimethylamino)phenyl)-3,4-dihydropyrrolo[1,2-a]pyrazin-2(1H)-yl)(4-fluorophenyl)methanone] returned an inhibition at 10 µM of 47%. Further, the “NA reuptake % inhibition [10 μmol]” value in the assay with NA reuptake was found to be 40%.

Regarding `O=C(c1ccc2c(c1)OCO2)N1CCn2cccc2C1c1cccs1` (stereo not shown) [Example 56, benzo[1,3]dioxol-5-yl-(1-thiophen-2-yl-3,4-dihydro-1H-pyrrolo[1,2-a]pyrazin-2-yl)-methanone], on Serotonin reuptake, at 10 µM the inhibition was 56%. The “NA reuptake % inhibition [10 μmol]” value in the assay with NA reuptake came to 35%.

For the molecule `Cc1ccccc1C(=O)N1CCn2cccc2C1c1cccs1` (stereo not shown) [Example 57, (1-(thiophen-2-yl)-3,4-dihydropyrrolo[1,2-a]pyrazin-2(1H)-yl)(o-tolyl)methanone], the inhibition at 10 µM against Serotonin reuptake was 44%. Also, the “NA reuptake % inhibition [10 μmol]” value with NA reuptake turned out to be 15%.

As for `O=C(c1cccc(F)c1)N1CCn2cccc2C1c1cccs1` (stereo not shown) [Example 58, (3-fluoro-phenyl)-(1-thiophen-2-yl-3,4-dihydro-1H-pyrrolo[1,2-a]pyrazin-2-yl)-methanone], on Serotonin reuptake, the inhibition at 10 µM turned out to be 60%. Moreover, the “NA reuptake % inhibition [10 μmol]” value with NA reuptake was determined as 54%.

For the molecule `O=C(C1CC1)N1CCn2cccc2C1c1cccs1` (stereo not shown) [Example 59, cyclopropyl(1-(thiophen-2-yl)-3,4-dihydropyrrolo[1,2-a]pyrazin-2(1H)-yl)methanone], the inhibition at 10 µM against Serotonin reuptake was 31%. The “NA reuptake % inhibition [10 μmol]” value in the assay with NA reuptake was 10%.

With `O=C(c1ccc(F)cc1)N1CCn2cccc2C1c1cccs1` (stereo not shown) [Example 60, (4-fluorophenyl)(1-(thiophen-2-yl)-3,4-dihydropyrrolo[1,2-a]pyrazin-2(1H)-yl)methanone], 10 µM produced 37% inhibition at Serotonin reuptake. Besides, the “NA reuptake % inhibition [10 μmol]” value in the assay on NA reuptake stood at 11%.

With `O=C(c1ccc2c(c1)OCO2)N1CCn2cccc2C1c1ccc(Cl)c(Cl)c1` (stereo not shown) [Example 61, benzo[1,3]dioxol-5-yl-[1-(3,4-dichloro-phenyl)-3,4-dihydro-1H-pyrrolo[1,2-a]pyrazin-2-yl]-methanone], 10 µM produced 64% inhibition on Serotonin reuptake. Also, the “NA reuptake % inhibition [10 μmol]” value with NA reuptake was 68%.

In turn, `O=C(C1CCCC1)N1CCn2cccc2C1c1ccc(Cl)c(Cl)c1` (stereo not shown) [Example 62, cyclopentyl-[1-(3,4-dichloro-phenyl)-3,4-dihydro-1H-pyrrolo[1,2-a]pyrazin-2-yl]-methanone] gave an inhibition at 10 µM on Serotonin reuptake of 51%. For the same molecule, the “NA reuptake % inhibition [10 μmol]” value with NA reuptake amounted to 29%.

At Serotonin reuptake, `O=C(c1ccccc1F)N1CCn2cccc2C1c1ccc(Cl)c(Cl)c1` (stereo not shown) [Example 63, [1-(3,4-dichloro-phenyl)-3,4-dihydro-1H-pyrrolo[1,2-a]pyrazin-2-yl]-(2-fluoro-phenyl)-methanone] yielded an inhibition at 10 µM of 65%. In addition, in the assay on NA reuptake, the “NA reuptake % inhibition [10 μmol]” value is 71%.

In the case of `CC(C)CC(=O)N1CCn2cccc2C1c1ccc(Cl)c(Cl)c1` (stereo not shown) [Example 64, 1-(1-(3,4-dichlorophenyl)-3,4-dihydropyrrolo[1,2-a]pyrazin-2(1H)-yl)-3-methylbutan-1-one], the inhibition at 10 µM against Serotonin reuptake stood at 48%. Also, the “NA reuptake % inhibition [10 μmol]” value in the assay with NA reuptake came out at 30%.

As for `O=C(c1cccs1)N1CCn2cccc2C1c1ccc(Cl)c(Cl)c1` (stereo not shown) [Example 65, (1-(3,4-Dichlorophenyl)-3,4-dihydropyrrolo[1,2-a]pyrazin-2(1H)-yl)(thiophen-2-yl)methanone], the inhibition at 10 µM against Serotonin reuptake worked out at 43%. In addition, in the assay with NA reuptake, the “NA reuptake % inhibition [10 μmol]” value is given as 49%.

On Serotonin reuptake, `O=C(C1CCC1)N1CCn2cccc2C1c1ccc(Cl)c(Cl)c1` (stereo not shown) [Example 66, cyclobutyl(1-(3,4-dichlorophenyl)-3,4-dihydropyrrolo[1,2-a]pyrazin-2(1H)-yl)methanone] came in with an inhibition at 10 µM of 43%. Also, in the assay with NA reuptake, the “NA reuptake % inhibition [10 μmol]” value turned out to be 32%.

For `CC(C)C(=O)N1CCn2cccc2C1c1ccc(Cl)c(Cl)c1` (stereo not shown) [Example 67, 1-(1-(3,4-dichlorophenyl)-3,4-dihydropyrrolo[1,2-a]pyrazin-2(1H)-yl)-2-methylpropan-1-one], testing at 10 µM on Serotonin reuptake gave an inhibition of 46%. In addition, the “NA reuptake % inhibition [10 μmol]” value in the assay on NA reuptake was 46%.

In the case of `O=C(c1ccco1)N1CCn2cccc2C1c1ccc(Cl)c(Cl)c1` (stereo not shown) [Example 68, [1-(3,4-dichloro-phenyl)-3,4-dihydro-1H-pyrrolo[1,2-a]pyrazin-2-yl]-furan-2-yl-methanone], on Serotonin reuptake, 10 µM produced 57% inhibition. Moreover, the “NA reuptake % inhibition [10 μmol]” value in the assay on NA reuptake worked out at 48%.

On to `Cc1ccc(C2c3cccn3CCN2C(=O)c2ccccc2F)cc1` (stereo not shown) [Example 69, (2-fluorophenyl)(1-p-tolyl-3,4-dihydropyrrolo[1,2-a]pyrazin-2(1H)-yl)methanone], for which the inhibition at 10 µM against Serotonin reuptake was determined as 40%. Also, the “NA reuptake % inhibition [10 μmol]” value in the assay on NA reuptake came out at 12%.

The molecule `Cc1ccsc1C(=O)N1CCn2cccc2C1c1ccccc1` (stereo not shown) [Example 70, (3-methylthiophen-2-yl)(1-phenyl-3,4-dihydropyrrolo[1,2-a]pyrazin-2(1H)-yl)methanone] yielded an inhibition at 10 µM against Serotonin reuptake of 38%. Besides, in the assay on NA reuptake, the “NA reuptake % inhibition [10 μmol]” value was 11%.

At Serotonin reuptake, `O=C(/C=C/c1ccc(F)cc1F)N1CCn2cccc2C1c1ccccc1` (stereo not shown) [Example 71, 3-(2,4-difluorophenyl)-1-(1-phenyl-3,4-dihydropyrrolo[1,2-a]pyrazin-2(1H)-yl)prop-2-en-1-one] gave an inhibition at 10 µM of 27%. In addition, in the assay on NA reuptake, the “NA reuptake % inhibition [10 μmol]” value was 17%.

In the case of `O=C(/C=C/c1ccccc1)N1CCn2cccc2C1c1cccs1` (stereo not shown) [Example 72, 3-phenyl-1-(1-(thiophen-2-yl)-3,4-dihydropyrrolo[1,2-a]pyrazin-2(1H)-yl)prop-2-en-1-one], the inhibition at 10 µM on Serotonin reuptake came out at 28%. For the same molecule, the “NA reuptake % inhibition [10 μmol]” value in the assay on NA reuptake is listed as 23%.

For `Cc1ccccc1C(=O)N1CCn2cccc2C1c1ccc(F)cc1` (stereo not shown) [Example 75, (1-(4-fluorophenyl)-3,4-dihydropyrrolo[1,2-a]pyrazin-2(1H)-yl)(o-tolyl)methanone], the inhibition at 10 µM at Serotonin reuptake worked out at 38%. Besides, the “NA reuptake % inhibition [10 μmol]” value in the assay with NA reuptake worked out at 17%.

The molecule `O=C(CCc1ccccc1)N1CCn2cccc2C1c1cccs1` (stereo not shown) [Example 76, 3-phenyl-1-(1-(thiophen-2-yl)-3,4-dihydropyrrolo[1,2-a]pyrazin-2(1H)-yl)propan-1-one] gave an inhibition at 10 µM on Serotonin reuptake of 36%. Further, the “NA reuptake % inhibition [10 μmol]” value in the assay with NA reuptake was 46%.

On Serotonin reuptake, `O=C(CCCCc1ccccc1)N1CCn2cccc2C1c1cccs1` (stereo not shown) [Example 77, 5-phenyl-1-(1-(thiophen-2-yl)-3,4-dihydropyrrolo[1,2-a]pyrazin-2(1H)-yl)pentan-1-one] yielded an inhibition at 10 µM of 25%. Also, the “NA reuptake % inhibition [10 μmol]” value in the assay on NA reuptake is 10%.

At Serotonin reuptake, `O=C(CCC1CCCCC1)N1CCn2cccc2C1c1cccs1` (stereo not shown) [Example 86, 3-cyclohexyl-1-(1-(thiophen-2-yl)-3,4-dihydropyrrolo[1,2-a]pyrazin-2(1H)-yl)propan-1-one] yielded an inhibition at 10 µM of 53%. Also, in the assay on NA reuptake, the “NA reuptake % inhibition [10 μmol]” value turned out to be 19%.
